What was measured:
human SPPL2a [1] = target: T1, human SPPL2a (Homo sapiens, UniProt Q8TCT8); test: Sppl2a TL (translocation) imaging assay in U-2 OS cells; type: cell-based; set-up: expressed in transfected cells; settings: U-2 OS cells expressing human SPPL2a and EGFP-TNFα(aa1-76) NTF substrate; 24 h
T1 sequence (Q8TCT8 26-520): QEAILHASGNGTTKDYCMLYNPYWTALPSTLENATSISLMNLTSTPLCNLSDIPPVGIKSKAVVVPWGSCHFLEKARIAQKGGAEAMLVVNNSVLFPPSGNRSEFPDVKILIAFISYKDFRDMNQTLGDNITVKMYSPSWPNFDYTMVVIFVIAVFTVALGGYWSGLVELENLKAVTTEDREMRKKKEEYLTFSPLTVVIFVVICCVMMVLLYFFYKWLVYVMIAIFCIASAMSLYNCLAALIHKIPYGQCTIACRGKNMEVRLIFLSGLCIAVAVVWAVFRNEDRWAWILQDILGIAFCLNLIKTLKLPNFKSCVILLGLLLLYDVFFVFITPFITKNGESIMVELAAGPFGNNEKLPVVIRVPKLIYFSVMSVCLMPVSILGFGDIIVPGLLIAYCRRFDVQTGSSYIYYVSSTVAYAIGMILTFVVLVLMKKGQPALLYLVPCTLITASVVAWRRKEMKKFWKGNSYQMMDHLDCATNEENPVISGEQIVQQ
Method: SPPL2a, TL in U-2 OS Cells. Stable U-2 OS cell lines expressing human SPPL2a constitutively and a EGFP-labeled TNFα(aa1-76) NTF substrate under a doxycycline-regulated promoter were used for the imaging assays. Cells were seeded at 3000 cells/30 μL/384-well in DMEM/GlutaMax™-I (Invitrogen) supplemented with tetracycline-free 10% FBS (Amimed) and incubated at 37° C., 5% CO2 for 3-4 h. Subsequently, 3.3 μL of inhibitors, prediluted in doxycycline-containing medium for 11-point concentration-response curves, were added to each well using a CyBi well liquid handling device (Cybio AG, Jena, Germany) to result in final inhibitor concentrations ranging from 100 μM to 1 nM (final DMSO concentration 0.9% (v/v)) and 5 μg/mL doxycycline). The cells were incubated with inhibitor at 37° C., 5% CO2 for 24 h. Thereafter cell were fixed in 4% PFA/PBS and in parallel, nuclei were stained with Hoechst (Invitrogen) 1:5000 in PBS for 30 min. The plates were imaged using a Cellomics ArrayScan VTI HCS reader with 10×/0.3NA objective (Thermo Fisher Scientific, USA). Six images per well were acquired. Images for the EGFP signal (Ex395, Em509) and the Hoechst nuclear dye (Ex350, Em425) were acquired simultaneously with image analysis using the “Nuclear Translocation” assay algorithm of the Cellomics ArrayScan software. Nuclei were detected based on the Hoechst staining, the nuclear mask was transferred to the EGFP channel, and a 4 pixel wide cytoplasm ring region was defined around the nucleus. The intensity of the EGFP signal was measured both in the nuclear and in the cytoplasm ring region of each individual cell (in general 800-1000 individual cells were analyzed per well), and the difference of the average nuclear versus average cytoplasmic intensity of the EGFP signal was calculated (“CircRingAvgIntenDiffCh2”=“CircAvgIntenCh2”−“RingAvgIntenCh2”). Additionally the number of cells were acquired (feature termed “ValidCellCount”) and used to calculate cell toxicity (CC50). Percent inhibition was calculated relative to the positive (0.5 μM LY-411,575=100% inhibition) and negative (DMSO=0% inhibition) controls. The IC50 value was calculated from the plot of percentage of inhibition vs inhibitor concentration using nonlinear regression analysis software, e.g., Origin (OriginLab Corp.).

human SPPL2a [2] = target: T1, human SPPL2a; test: Sppl2a RGA (reporter gene assay) in HEK293 cells; type: cell-based; set-up: expressed in transfected cells; host or cells: HEK293 (transient); settings: NT-TNF-VP16-Gal4 substrate, Gal4-luciferase reporter, 24 h
Description: Sppl2a RGA (Reporter Gene Assay):
Sppl2a is an intramembrane aspartyl protease with similarities to presenilin, the active subunit of the γ-secretase complex. The assay is based on the coupling of the proteolytic degradation of a membrane bound synthetic substrate (VP16-Gal4 fusion protein with the N-terminal domain of TNF alpha), which migrates to the nucleus upon cleavage, with the Gal4 driven expression of luciferase. Inhibition of Sppl2a results in a reduction of nuclear VP16-Gal4 activator and therefore in a reduction of the production of luciferase. The luciferase dependent-luminescence is plotted against the concentrations of compound to generate a dose response curve, which allows the calculation of the IC50 value.
DNA vectors encoding human Sppl2a, NT-TNF-VP16-Gal4 and a Gal4-luciferase reporter were transiently transfected in HEK293 cells. In a typical experiment 5 μg plasmid for SPPL2a, 10 μg plasmid encoding the reporter Gal4-luciferase and 20 μg plasmid encoding the substrate NT-TF-VP16-Gal4 were mixed together. The DNA mixture was combined with 107 μl FuGENE® (Promega), 735 μl Opti-MEM® (Life Technologies) and incubated for 5 minutes at RT. To this mixture 20 mL of concentrated HEK293 cells were added and thoroughly mixed. The cell suspension was distributed to a white solid 384 well plate. Within 5 hours, 50 nl of compound in DMSO was stamped into the wells via pintool. The plate was incubated for 24 h at 37° C., 5% CO2 in a humidified incubator, before the addition of 25 μl Bright Glo. After incubation at RT for 5 min, the plate was transferred to a luminometer and the luminescence was measured. The IC50 was determined by plotting compound concentration vs. normalized luminescence values.

Compound | IC50 (human SPPL2a [1]) [nM] | IC50 (human SPPL2a [2]) [nM]
CC(C)NC(=O)c1cc(NC(=O)C[C@H](C(=O)N[C@@H]2C(=O)N3CCCN3Cc3ccccc32)C2CC2)n(C)n1 [Example 67, (S)-2-Cyclopropyl-N^4-(3-(isopropylcarba-moyl)-1-methyl-1H-pyrazol-5-yl)-N^1-((S)-11-oxo-2,3,10,11-tetrahydro-1H,5H-benzo[d]pyrazolo [1,2-a][1,2]diazepin-10-yl)succinamide] | 2 | 5
C[C@H](CC(=O)Nc1cc(NC(=O)C(F)(F)C(F)(F)F)nn1C)C(=O)N[C@@H]1C(=O)N2CCCN2Cc2ccccc21 [Example 70, (R)-2-Methyl-N^4-(1-methyl-3-(2,2,3,3,3-pentafluoropro-panamido)-1H-pyrazol-5-yl)-N^1-((S)-11-oxo-2,3,10,11-tetrahydro-1H,5H-benzo[d]pyrazolo [1,2-a][1,2]diazepin-10-yl)succinamide] | 4 | 13
C[C@H](CC(=O)Nc1cc(-c2cc(C3CC3)no2)nn1C)C(=O)N[C@@H]1C(=O)N2CCCN2Cc2ccccc21 [Example 71, (R)-N^4-(3-(3-Cyclopropylisoxa-zol-5-yl)-1-methyl-1H-pyrazol-5-yl)-2-methyl-N^1-((S)-11-oxo-2,3,10,11-tetrahydro-1H,5H-benzo[d]pyrazolo [1,2-a][1,2]diazepin-10-yl)succinamide] | 4 | 4
C[C@H](CC(=O)Nc1cc(-c2ccc(C(F)(F)F)nc2)nn1C)C(=O)N[C@@H]1C(=O)N2CCCN2Cc2ccccc21 [Example 72, (R)-2-Methyl-N^4-(1-methyl-3-(6-(trifluoromethyl)pyridin-3-yl)-1H-pyrazol-5-yl)-N^1-((S)-11-oxo-2,3,10,11-tetrahydro-1H,5H-benzo[d]pyrazolo [1,2-a][1,2]diazepin-10-yl)succinamide] | 4 | 9
C[C@H](CC(=O)Nc1sc(-c2ccn(C)n2)nc1Cl)C(=O)N[C@@H]1C(=O)N2CCCN2Cc2ccccc21 [Example 73, (R)-N^4-(4-Chloro-2-(1-methyl-1H-pyrazol-3-yl)thiazol-5-yl)-2-methyl-N^1-((S)-11-oxo-2,3,10,11-tetrahydro-1H,5H-benzo[d]pyrazolo [1,2-a][1,2]diazepin-10-yl)succinamide] | 4 | 25
Cc1cncc(-c2cc(NC(=O)C[C@@H](C)C(=O)N[C@@H]3C(=O)N4CCCN4Cc4ccccc43)n(C)n2)c1 [Example 74, (R)-2-Methyl-N^4-(1-methyl-3-(5-methylpyridin-3-yl)-1H-pyrazol-5-yl)-N^1-((S)-11-oxo-2,3,10,11-tetrahydro-1H,5H-benzo[d]pyrazolo [1,2-a][1,2]diazepin-10-yl)succinamide] | 4 | 13
Cc1cncc(-c2cc(NC(=O)C[C@H](C(=O)N[C@@H]3C(=O)N4CCCN4Cc4ccccc43)C3CC3)n(C)n2)c1 [Example 75, (S)-2 Cyclopropyl-N^4-(1-methyl-3-(5-methylpyridin-3-yl)-1H-pyrazol-5-yl)-N^1-((S)-11-oxo-2,3,10,11-tetrahydro-1H,5H-benzo[d]pyrazolo [1,2-a][1,2]diazepin-10-yl)succinamide] | 5 | 4
C[C@@H](CF)NC(=O)c1cc(NC(=O)C[C@H](C(=O)N[C@@H]2C(=O)N3CCCN3Cc3ccccc32)C2CC2)n(C)n1 [Example 78, (S)-2-Cyclopropyl-N^4-(3-(((S)-1-fluoropropan-2-yl)carbamoyl)-1-methyl-1H-pyrazol-5-yl)-N^1-((S)-11-oxo-2,3,10,11-tetrahydro-1H,5H-benzo[d]pyrazolo [1,2-a][1,2]diazepin-10-yl)succinamide] | 6 | 43
Cc1nc(-c2cncc(F)c2)sc1NC(=O)C[C@@H](C)C(=O)N[C@@H]1C(=O)N2CCCN2Cc2ccccc21 [Example 79, (R)-N^4-(2-(5-fluoropyridin-3-yl)-4-methylthiazol-5-yl)-2-methyl-N^1-((S)-11-oxo-2,3,10,11-tetrahydro-1H,5H-benzo[d]pyrazolo [1,2-a][1,2]diazepin-10-yl)succinamide] | 7 | 10
CCc1cc(-c2cc(NC(=O)C[C@@H](C)C(=O)N[C@@H]3C(=O)N4CCCN4Cc4ccccc43)n(C)n2)no1 [Example 81, (R)-N^4-(3-(5-Ethylisoxazol-3-yl)-1-methyl-1H-pyrazol-5-yl)-2-methyl-N^1-((S)-11-oxo-2,3,10,11-tetrahydro-1H,5H-benzo[d]pyrazolo [1,2-a][1,2]diazepin-10-yl)succinamide] | 8 | 5
CCn1nc(-c2ccc(C(F)(F)F)nc2)cc1NC(=O)C[C@@H](C)C(=O)N[C@@H]1C(=O)N2CCCN2Cc2ccccc21 [Example 83, (R)-N^4-(1-Ethyl-3-(6-(trifluoromethyl)pyridin-3-yl)-1H-pyrazol-5-yl)-2-methyl-N^1-((S)-11-oxo-2,3,10,11-tetrahydro-1H,5H-benzo[d]pyrazolo [1,2-a][1,2]diazepin-10-yl)succinamide] | 9 | 6
C[C@H](CC(=O)Nc1cc(C(=O)NCCC(F)(F)F)nn1C)C(=O)N[C@@H]1C(=O)N2CCCN2Cc2ccccc21 [Example 84, (R)-2-Methyl-N^4-(1-methyl-3-((3,3,3-trifluoropropyl)carbamoyl)-1H-pyrazol-5-yl)-N^1-((S)-11-oxo-2,3,10,11-tetrahydro-1H,5H-benzo[d]pyrazolo [1,2-a][1,2]diazepin-10-yl)succinamide] | 9 | 40
CCc1cc(-c2cc(NC(=O)C[C@@H](C)C(=O)N[C@@H]3C(=O)N4CCCN4Cc4ccccc43)n(C)n2)on1 [Example 86, (R)-NA-(3-(3-Ethylisoxazol-5-yl)-1-methyl-1H-pyrazol-5-yl)-2-methyl-N^1-((S)-11-oxo-2,3,10,11-tetrahydro-1H,5H-benzo[d]pyrazolo [1,2-a][1,2]diazepin-10-yl)succinamide] | 10 | 4
C[C@H](CC(=O)Nc1cc(-c2ccc(F)cn2)nn1C)C(=O)N[C@@H]1C(=O)N2CCCN2Cc2ccccc21 [Example 87, (R)-N^4-(3-(5-Fluoropyridin-2-yl)-1-methyl-1H-pyrazol-5-yl)-2-methyl-N^1-((S)-11-oxo-2,3,10,11-tetrahydro-1H,5H-benzo[d]pyrazolo [1,2-a][1,2]diazepin-10-yl)succinamide] | 10 | 10
